The source of these data is publication PMC12916490 (Molecular Psychiatry, 2025).

One assay addresses T1, h5-HT1A (Homo sapiens, UniProt P08908).
T1 construct: expressed in transfected cells; host or cells: HEK 293 cells (membrane preparation)
T1 sequence (P08908 1-422): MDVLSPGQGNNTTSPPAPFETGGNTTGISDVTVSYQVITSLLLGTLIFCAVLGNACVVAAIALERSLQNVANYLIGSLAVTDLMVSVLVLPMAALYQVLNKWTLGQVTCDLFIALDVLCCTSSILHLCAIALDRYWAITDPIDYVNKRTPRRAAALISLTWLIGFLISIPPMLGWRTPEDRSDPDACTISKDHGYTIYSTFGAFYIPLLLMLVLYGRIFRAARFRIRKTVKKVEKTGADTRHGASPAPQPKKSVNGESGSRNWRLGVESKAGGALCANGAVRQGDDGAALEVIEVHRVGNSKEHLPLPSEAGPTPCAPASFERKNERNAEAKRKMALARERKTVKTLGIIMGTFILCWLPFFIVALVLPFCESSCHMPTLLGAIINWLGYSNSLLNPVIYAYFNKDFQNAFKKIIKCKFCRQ
In words: Radioligand binding, h5-HT1A receptor ([3H]8-OH-DPAT).

In a further assay the target is h5-HT2A (Homo sapiens, UniProt P28223). The experiment in a line: Arachidonic acid release (Gαi/o,12/13 marker), h5-HT2A. The class given is cell-based. More on the design: expressed in transfected cells; host or cells: HEK 293 cells (membrane preparation). To be noted: for Emax: read-out: Arachidonic acid release Emax h5-HT2A (95% CI). The method, then: Activation of h5-HT2A, h5-HT2B, and h5-HT2C receptors was examined by measuring the accumulation of inositol monophosphate (IP1) as a marker for Gαq-mediated signaling. For h5-HT2A, additional assays measured β-arrestin 2 recruitment and arachidonic acid release, the latter serving as a marker of Gαi/o,12/13 activation. The methodology is described in detail in the Supplementary information.
The IC50 values from the radioligand binding assays were determined by nonlinear regression, using three independent concentration-response curves fitted to a one-site model. The Cheng-Prusoff equation was used to calculate Kᵢ values for the competing ligands. EC50 values were determined by applying nonlinear regression to concentration-response curves. Bias factors (β) were calculated based on the relative intrinsic activity approach. More detailed information can be found in the Supplementary information. Mean values for total number of HTR, change in body temperature from pre to post session (Δ°C), and total distance traveled (cm) for each drug dose were compared (p < 0.05) via Welch’s ANOVA with Dunnett’s T3 post test, comparing all doses to respective vehicle controls (0 mg/kg). Welch’s ANOVA with Dunnett’s T3 post test was also used to compare drug concentrations, but the data were compared to DOM in this case. Dose–response relationships for HTR and locomotor activities were plotted using bell-shaped curve fits, while temperature change data were plotted using four-parameter non-linear regression curve fits. The ascending phase of the HTR curve for each drug was used to determine ED50 potency values from four parameter non-linear regression fits. For combined DOM and DOAM administration, the plasma, brain tissue, and brain dialysate drug concentrations were compared using paired t-tests (p < 0.05). […]
the β-arrestin 2 molecule in the NanoBiT system) were seeded at a density of 50,000 cells per well in poly - D-lysine-coated 96-well plates in medium containing 10% dialyzed FBS. The plate was then incubated at […]
The following day, the cells were washed twice with 150 µL HBSS, and 100 µL HBSS was subsequently added to each well. Thereafter, 25 µL of substrate (1 :20 diluted in buffer) was added, and […]
agonist solutions was added, and the signal was monitored for 2 h. Drug dilutions in HBSS were made from 10 mM stock solutions in DMSO , yielding concentration ranges from 10 µM to 10 pM. All concentrations were run in duplicate and included the appropriate solvent controls. Efficacy was normalized to 5 -HT […]
3.2.3 Arachidonic acid release
Arachidonic acid release was assessed as a marker for Gαi/o,12/13 mediated signaling.
NIH/3T3 cells stably expressing the 5 -HT2A receptor were seeded at a density of 75,000 cells per well in a poly-D-lysine-coated 48-well plate. The following day, the cells were labeled with 300 μL [ 3H]arachidonic […]
Thereafter, the cells were washed 3 times for
(10 mM) of test substances were prepared in DMSO. The final dilution series of test substances dissolved […]
Thereafter, the plate was put on ice, and 400 μL incubation supernatant per well was transferred int o scintillation vials containing scintillation fluid (Ultimagold, Perkin Elmer, Schwerzenbach, Switzerland). The remaining supernatant was removed, and the cells were lysed with 1% sodium dodecyl sulfate lysis buffer. The obtained cell lysate was transferred into scintillation vials containing scintillation fluid. Radioactivity was measured on a liquid scintillation counter (Packard 1900 TR Tri-Carb Liquid Scintillation Counter; Packard Instrument Company). Efficacy was normalized to 5-HT activity.
3.2.4 Calculation of bias factors […]
using 5-HT as the reference agonist.
RApathway = EC50, i = EC50, ref×Emax,i […]

The structures appear in SMILES notation. Like-named read-outs stand apart in the source and are kept apart here.

Chain of h5-HT2A (P28223 whole entry, looked up): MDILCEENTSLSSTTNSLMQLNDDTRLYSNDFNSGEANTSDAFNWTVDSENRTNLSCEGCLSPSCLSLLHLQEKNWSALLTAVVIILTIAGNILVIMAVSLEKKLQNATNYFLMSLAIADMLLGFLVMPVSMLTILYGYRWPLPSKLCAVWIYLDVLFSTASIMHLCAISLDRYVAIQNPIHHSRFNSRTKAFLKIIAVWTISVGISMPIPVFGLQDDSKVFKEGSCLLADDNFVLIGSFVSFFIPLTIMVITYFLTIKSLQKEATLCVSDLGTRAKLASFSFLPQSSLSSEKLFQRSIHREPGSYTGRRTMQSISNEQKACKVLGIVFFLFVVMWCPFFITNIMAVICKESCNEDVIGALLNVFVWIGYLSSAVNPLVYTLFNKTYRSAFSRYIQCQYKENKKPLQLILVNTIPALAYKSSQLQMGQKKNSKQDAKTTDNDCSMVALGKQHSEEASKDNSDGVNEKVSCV

A word on the Ki: it is the dissociation constant of the complex between target and ligand, obtained from inhibition or displacement. As a reminder, the EC50 is the concentration giving half of the maximal effect. High values mean a need for much substance, low ones an effect from little substance. The Emax is the size of the effect at its maximum, as opposed to the concentration needed. For `CCCCc1cc(OC)c(CC(C)N)cc1OC` (stereo not shown) [DOBU, 4-butyl-2,5-dimethoxyamphetamine], on h5-HT1A, the inhibition constant Ki was 13.5 µM. Moreover, at h5-HT2A, the “Agonist type for Gαi/o,12/13-mediated signaling at the 5-HT2A receptor” value (“Agonist type” for short) is recorded as “high efficacy partial agonists”; the midpoint of the response, the EC50, lay at 0.002 µM; the Emax came to 74%.
For the compound `COc1ccc(OC)c(CC(C)N)c1.Cl` (stereo not shown) [2,5-DMA, 2,5-Dimethoxyamphetamine hydrochloride], the affinity on h5-HT1A, expressed as Ki, was 6.02 µM. Also, at h5-HT2A, the “Agonist type” value was “high efficacy partial agonists” and the maximal response (Emax) is 59%.
Take `CCCCCc1cc(OC)c(CC(C)N)cc1OC` (stereo not shown) [DOAM, 4-amyl-2,5-dimethoxyamphetamine]: the Ki at h5-HT1A turned out to be 8.42 µM. At h5-HT2A, the “Agonist type” value is given as “high efficacy partial agonists”, the EC50 was found to be 0.0024 µM and the maximum response (Emax) worked out at 91%.
Regarding `CCc1cc(OC)c(CC(C)N)cc1OC` (stereo not shown) [DOET, 4-ethyl-2,5-dimethoxyamphetamine], the affinity on h5-HT1A corresponds to a Ki of 5.76 µM. Also, on h5-HT2A, the “Agonist type” value is reported as “high efficacy partial agonists”, the EC50 is 0.0015 µM and the Emax amounted to 88%.
At h5-HT1A, `CCCc1cc(OC)c(CC(C)N)cc1OC.Cl` (stereo not shown) [DOPR, 4-propyl-2,5-dimethoxyamphetamine hydrochloride] returned a Ki of 3.95 µM. In addition, on h5-HT2A, the EC50 was 0.00086 µM and the maximal effect (Emax) amounted to 117%.
`COc1cc(CC(C)N)c(OC)cc1C` (stereo not shown) [DOM, 4-methyl-2,5-dimethoxyamphetamine]: the inhibition constant Ki on h5-HT1A (read-out: Ki h5-HT1A (95% CI), receptor binding, HEK 293 membranes) turned out to be 7.24 µM. In addition, on h5-HT2A, the “Agonist type” value is listed as “high efficacy partial agonists”, the EC50 was found to be 0.0037 µM and the Emax turned out to be 75%.
